One series concerns the target T1, LuxAB luciferase (Aliivibrio fischeri, UniProt P19907).
T1 construct: gene luxA; natively purified LuxAB luciferase, untagged; with Alkanal monooxygenase beta chain
T1 sequence (P19907 1-354): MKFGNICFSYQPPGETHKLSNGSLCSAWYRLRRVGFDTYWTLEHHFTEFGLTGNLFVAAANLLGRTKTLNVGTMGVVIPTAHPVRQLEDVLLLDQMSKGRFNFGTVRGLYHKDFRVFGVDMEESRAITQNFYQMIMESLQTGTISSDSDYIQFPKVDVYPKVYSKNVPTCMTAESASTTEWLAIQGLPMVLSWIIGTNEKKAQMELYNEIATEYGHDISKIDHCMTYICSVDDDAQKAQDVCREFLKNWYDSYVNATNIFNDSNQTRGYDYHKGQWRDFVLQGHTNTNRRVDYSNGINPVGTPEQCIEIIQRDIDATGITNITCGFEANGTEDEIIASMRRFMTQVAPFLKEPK
T1 sequence (P19908 1-326 partner): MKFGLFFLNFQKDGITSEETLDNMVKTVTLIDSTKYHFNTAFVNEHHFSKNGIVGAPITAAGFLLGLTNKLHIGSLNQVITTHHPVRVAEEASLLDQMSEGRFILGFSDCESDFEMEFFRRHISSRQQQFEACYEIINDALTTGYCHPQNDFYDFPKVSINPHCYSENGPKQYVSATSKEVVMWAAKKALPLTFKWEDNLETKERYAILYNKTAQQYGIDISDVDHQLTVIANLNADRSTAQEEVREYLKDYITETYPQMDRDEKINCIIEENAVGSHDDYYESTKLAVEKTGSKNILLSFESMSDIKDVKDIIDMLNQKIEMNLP
As to the kind of experiment: […] min biotransformation with FMNH2 supplied by purified flavin reductases, GC. As to conditions: FMNH2 cosubstrate generated in situ from FMN and NADH, 1 mM ketone, pH 7.6, 25 °C. It counts as biochemical.

The target in another series is T2, 3,6-DKCMO (Pseudomonas putida, UniProt D7UER1).
T2 construct: gene camE36; natively purified biooxygenating subunit, untagged
T2 sequence (D7UER1 1-378): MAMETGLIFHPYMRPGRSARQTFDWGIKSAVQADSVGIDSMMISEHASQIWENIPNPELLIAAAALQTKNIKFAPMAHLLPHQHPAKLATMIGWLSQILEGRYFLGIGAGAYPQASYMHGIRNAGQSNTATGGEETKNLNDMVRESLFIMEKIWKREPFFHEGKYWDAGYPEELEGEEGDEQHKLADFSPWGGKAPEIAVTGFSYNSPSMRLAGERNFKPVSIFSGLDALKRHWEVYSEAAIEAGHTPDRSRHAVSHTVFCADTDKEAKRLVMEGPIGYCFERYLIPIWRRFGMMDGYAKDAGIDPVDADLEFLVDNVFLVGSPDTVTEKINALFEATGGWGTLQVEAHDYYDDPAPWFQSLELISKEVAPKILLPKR
The series is described as above. The class given is biochemical. The conditions noted are these: FMNH2 cosubstrate generated in situ from FMN and NADH, 1 mM ketone, pH 7.6, 25 °C.

Another series concerns Frp2. The experiment in a line: initial rate of FMN reduction by NADH at […] nm, single-enzyme, Michaelis-Menten. It counts as biochemical, Pseudomonas putida. As to conditions: co-substrate NADH, anaerobic; single-enzyme assay (S); read-out: Apparent KmFMN.
A further series has as its system Frp1. Described as above. The conditions noted are these: co-substrate NADH, anaerobic; single-enzyme assay (S); read-out: Apparent KmFMN. It counts as biochemical, Pseudomonas putida.
Substrate in the series “purified protein”: Cc1cc2nc3c(=O)[nH]c(=O)nc-3n(C[C@H](O)[C@H](O)[C@H](O)COP(=O)(O)O)c2cc1C
As to the kind of experiment: purified protein. It counts as biochemical, Aliivibrio fischeri. The conditions noted are these: co-substrate NADH, anaerobic; single-enzyme assay (S).

`Cc1cc2c(cc1C)N(C[C@H](O)[C@H](O)[C@H](O)COP(=O)(O)O)c1[nH]c(=O)[nH]c(=O)c1N2` [FMNH2]: the “120 min biotransformation with FMNH2 supplied by purified flavin reductases, GC” value on LuxAB luciferase and at 3,6-DKCMO was “can biooxygenate the bicyclic ketone by sourcing the requisite FMNH2 cosubstrate” in each case.
Turning to `Cc1cc2nc3c(=O)[nH]c(=O)nc-3n(C[C@H](O)[C@H](O)[C@H](O)COP(=O)(O)O)c2cc1C` [FMN], the Km in the series with Frp2 is 4.2 µM; in the series with Frp1 it was 2500 nM.

B1: FreVf (Aliivibrio fischeri) (protein)
chain: MPINCKVKSIEPLACNTFRILLHPEQPVAFKAGQYLTVVMGEKDKRPFSIASSPCRHEGEIELHIGAAEHNAYAGEVVESMKSALETGGDILIDAPHGEAWIREDSDRSMLLIAGGTGFSYVRSILDHCISQQIQKPIYLYWGGRDECQLYAKAELESIAQAHSHITFVPVVEKSEGWTGKTGNVLEAVKADFNSLADMDIYIAGRFEMAGAAREQFTTEKQAKKEQLFGDAFAFI
Consider B1, for which the Km in “purified protein” is 2.5 µM.

B2: FRGVf (Aliivibrio fischeri) (protein)
chain: THPIIHDLENRYTSKKYDPSKKVSQEDLAVLLEALRLSASSINSQPWKFIVIESDAAKQRMHDSFANMHQFNQPHIKACSHVILFANKLSYTRDDYDVVLSKAVADKRITEEQKEAAFASFKFVELNCDENGEHKAWTKPQAYLALGNALHTLARLNIDSTTMEGIDPELLSEIFADELKGYECHVALAIGYHHPSEDYNASLPKSRKAFEDVITIL
As to B2, the Km in “purified protein” worked out at 4.3 µM.

(Values after paper PMC9864536, “Inter-Species Redox Coupling by Flavin Reductases and FMN-Dependent Two-Component Monooxygenases Undertaking Nucleophilic Baeyer–Villiger Biooxygenations” (Microorganisms, 2022).)
